Measurements taken from patent US11980625B2, “Ganaxolone for use in treating tuberous sclerosis complex” (Marinus Pharmaceuticals, Inc., priority 2019, dated 2024).
Entries after “also recorded” stand apart in the source; their conditions may differ.

Assays:
dogs = assay: 1-year (chronic oral) dog toxicity study; assay type: in vivo
Excerpt: There was a physiologically normal shortening of the PR and QT interval in response to the higher heart rate. There was no effect on QRS duration or QTc interval.

[1] = system: cytochrome P450 (CYP) isoenzymes 1A1/2 and 2B1/2; assay: Induction of CYP isoenzymes in rats; assay type: in vivo; settings: female versus male rats
[2] = Auto-induction in animals; assay type: in vivo, mouse, rat, dogs
rats and dogs = assay: Toxicology studies (oral and IV programmes); assay type: in vivo
Method: (§1) When given IV to rats and dogs, the main dose limiting toxicity finding was sedation. The no observed adverse effect level (NOAEL) after IV dosing in rats for 14 days was established at 42 mg/kg/day for males and 30 mg/kg/day for females. The NOAEL in dog after administration of ganaxolone by IV bolus followed by continuous IV infusion for 28 days was 7.20 mg/kg/day, which corresponded to a steady-state concentration of approximately 330 ng/mL and 333 ng/mL. There were no findings in a local tolerance study in rabbits.

rats = assay: 6-month study in rats; assay type: in vivo; settings: more pronounced in females, correlated to increased liver weights and hepatocellular hypertrophy
rabbits = assay: Local tolerance study in rabbits; assay type: in vivo
Method: as §1

[3] = system: patients with CDKL5 deficiency disorder (CDD); assay: Preliminary PK/PD analysis of phase 3 trial in CDKL5 deficiency disorder (CDD); assay type: in vivo, human
Excerpt: Global, randomized, double-blind, placebo-controlled phase 3 clinical trial to assess the safety and efficacy of adjunctive ganaxolone for the treatment of seizures associated with CDD. Patients aged 2 to 21 years with a pathogenic or likely pathogenic mutation of the CDKL5 gene, neurodevelopmental impairment, and seizures refractory to treatment with at least 2 prior antiseizure medications who experienced at least 16 seizures per 28 days during the 2 months prior to screening were eligible to enroll. Study consisted of a 6-week baseline followed by a 17-week double-blind phase (ganaxolone or placebo, 1:1). The dose of ganaxolone 50 mg/mL suspension was titrated over 4 weeks to 63 mg/kg/day (21 mg/kg TID), not to exceed 1800 mg/d (600 mg TID), or to the maximum tolerated dose. Blood draws for PK analysis were scheduled to occur at visit 3 (week 5), visit 4 (week 9), and visit 5 (week 17).
Mean ganaxolone concentration was calculated for each subject using available results from up to three laboratory determinations during the double-blind phase. Linear regression was conducted using arithmetic- and natural logarithm-transformed percent reduction in major motor seizures (loge [percent reduction+100]) as dependent variable and natural logarithm-transformed mean ganaxolone concentration as the single explanatory variable. Regression diagnostics included examination of residual and normal probability plots and determination of outliers and influential values. Cases with standardized residuals >2 or <−2 were excluded from the model and the regression was repeated.
The resulting sample was utilized in determination of a Pearson correlation coefficient (using log-transformed values). Additionally, percent seizure reduction was compared in three tertiles representing low (N=13), medium (N=13) and high (N=12) mean per subject ganaxolone concentrations using a Kruskal-Wallis test.

[4] = Modeled PK curves, TID versus BID dosing; set-up: species or system human; settings: modeled PK curves based on Phase 1 studies
Method: Based on the modeled PK curves, TID dosing may yield plasma ganaxolone levels >100 ng/mL for approximately 78% of a 24-hr day compared to just 53% using BID dosing.

[5] = Clinical interaction studies (grapefruit, enzyme-inducing AEDs); assay type: in vivo, human
[6] = system: mouse model of posttraumatic stress disorder (PTSD); settings: in vivo; cited from earlier work
[7] = system: children and adolescents with fragile X syndrome (FXS); settings: b131: in those with higher baseline anxiety; cited from earlier work
[8] = system: synaptic and extrasynaptic GABAA receptors; settings: site distinct from benzodiazepines and barbiturates; cited from earlier work
[9] = target: human ether-a-go-go related gene (hERG) receptor (Homo sapiens, UniProt Q12809); assay: hERG interaction; settings: measured concentration of 70 nM (n=2)
Chain of human ether-a-go-go related gene (hERG) receptor (Q12809 whole entry): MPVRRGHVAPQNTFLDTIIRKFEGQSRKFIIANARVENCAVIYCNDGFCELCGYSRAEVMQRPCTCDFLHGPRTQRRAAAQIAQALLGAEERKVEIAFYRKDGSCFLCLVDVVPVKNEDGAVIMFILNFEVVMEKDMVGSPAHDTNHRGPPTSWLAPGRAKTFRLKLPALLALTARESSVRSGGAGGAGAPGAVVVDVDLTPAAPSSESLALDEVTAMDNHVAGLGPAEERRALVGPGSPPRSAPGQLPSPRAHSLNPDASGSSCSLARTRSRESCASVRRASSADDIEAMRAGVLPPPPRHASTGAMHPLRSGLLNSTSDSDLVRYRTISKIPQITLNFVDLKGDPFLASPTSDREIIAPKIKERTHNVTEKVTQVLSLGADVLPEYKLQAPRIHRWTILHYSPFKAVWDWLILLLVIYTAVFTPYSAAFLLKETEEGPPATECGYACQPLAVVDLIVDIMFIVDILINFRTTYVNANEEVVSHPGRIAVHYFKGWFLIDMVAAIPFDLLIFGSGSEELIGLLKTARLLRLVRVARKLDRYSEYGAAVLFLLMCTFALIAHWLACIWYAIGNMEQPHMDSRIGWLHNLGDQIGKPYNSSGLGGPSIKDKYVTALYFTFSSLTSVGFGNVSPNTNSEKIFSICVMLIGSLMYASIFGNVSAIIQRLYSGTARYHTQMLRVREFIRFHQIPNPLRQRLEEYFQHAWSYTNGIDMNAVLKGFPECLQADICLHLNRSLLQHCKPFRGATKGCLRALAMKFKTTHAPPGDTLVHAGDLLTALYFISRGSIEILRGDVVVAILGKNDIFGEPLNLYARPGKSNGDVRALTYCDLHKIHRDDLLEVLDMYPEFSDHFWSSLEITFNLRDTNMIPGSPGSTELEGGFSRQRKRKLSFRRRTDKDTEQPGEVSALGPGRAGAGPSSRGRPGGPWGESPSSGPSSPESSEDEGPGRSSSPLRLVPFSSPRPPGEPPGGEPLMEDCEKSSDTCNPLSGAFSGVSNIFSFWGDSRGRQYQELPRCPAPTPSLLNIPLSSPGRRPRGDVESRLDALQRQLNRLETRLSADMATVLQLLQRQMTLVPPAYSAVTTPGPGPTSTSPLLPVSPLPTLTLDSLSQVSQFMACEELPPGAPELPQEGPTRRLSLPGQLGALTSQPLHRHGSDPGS

CC(=O)[C@H]1CC[C@H]2[C@@H]3CC[C@H]4C[C@](C)(O)CC[C@]4(C)[C@H]3CC[C@]12C [Ganaxolone, 3α-hydroxy-3β-methyl-5α-pregnan-20-one]
effect on QRS duration or QTc (dogs; 1-year dog toxicity study): no treatment effect
findings associated with mean Cmax greater than 1500 ng/mL (dogs; 10 and 15 mg/kg/day): increased weight and total plasma cholesterol levels
heart rate finding (>190 beats per minute) (dogs; after 3 months of dosing in 4 animals, with decreased PR and QT interval): transient sinus tachycardia
induction of CYP isoenzymes [1]: induces major cytochrome P450 (CYP) isoenzymes 1A1/2 and 2B1/2 in female rats but not males
auto-induction ([2]; dogs): no auto-induction
auto-induction ([2]; mouse and rat): Auto-induction has also been observed
main dose limiting toxicity finding (rats and dogs; IV to rats and dogs): sedation
most common effect in toxicology studies (rats and dogs; in vivo): dose-related sedation
target organ or systemic toxicity (rats and dogs; oral and IV programmes, single- or multiple-dose): little evidence of target organ or systemic toxicity
hepatic findings (rats): induced hepatic enzymes
local tolerance (rabbits): no findings
Mean percentage change in major motor seizures (per 28 days) ([3]; High tertile (n = 12)): −44.3%
Median percentage change in major motor seizures (per 28 days) ([3]; High tertile (n = 12)): −46.0%
Mean percentage change in major motor seizures (per 28 days) ([3]; Low tertile (n = 13)): −6.5%
Median percentage change in major motor seizures (per 28 days) ([3]; Low tertile (n = 13)): −8.4%
Mean percentage change in major motor seizures (per 28 days) ([3]; Median tertile (n = 13)): −30.3%
Median percentage change in major motor seizures (per 28 days) ([3]; Median tertile (n = 13)): −39.5%
seizure reduction predicted at a plasma concentration of approximately 100 ng/mL ([3]; back-transformation of log values, CDD participants): approximately 40%
plasma ganaxolone level (mean+standard deviation) ([3]; forty-four participants, 50 mg/mL suspension titrated to 63 mg/kg/day (max 1800 mg/d) TID): 103.5+79.2 ng/mL
part of a 24-hr day with plasma ganaxolone levels >100 ng/mL ([4]; BID dosing): 53%
part of a 24-hr day with plasma ganaxolone levels >100 ng/mL ([4]; TID dosing): approximately 78%
effect of grapefruit on exposure ([5]; healthy volunteers, adults): increased the exposure
ganaxolone levels with concomitant enzyme-inducing AEDs ([5]; patients): reduced
behaviour in PTSD mouse model [6]: decreased aggression and social isolation-induced anxiety-like behaviour
anxiety, hyperactivity and attention [7]: reduce anxiety, hyperactivity, and attention; also recorded: reduced anxiety and hyperactivity and improved attention
potency and efficacy in activating GABAA receptors [8]: comparable to allopregnanolone
interaction with hERG receptor [9]: did not interact
